Source: the NIST ThermoML archive (doi:10.1016/j.fluid.2014.02.029)
Numbers after ± are expanded uncertainties.

Details: 100 kPa, Liquid, Vibrating tube method

SMILES	mass density (293.15 K) [kg/m3]	mass density (303.15 K) [kg/m3]	mass density (313.15 K) [kg/m3]	mass density (323.15 K) [kg/m3]	mass density (333.15 K) [kg/m3]
CCOCCOCCOC(C)=O [2-(2-ethoxyethoxy)ethyl acetate]	1009.46 ± 0.25	999.19 ± 0.24	988.92 ± 0.24	978.66 ± 0.24	968.38 ± 0.24
CCCCOCCOC(C)=O [2-butoxyethyl acetate]	940.7 ± 0.77	930.89 ± 0.76	921.05 ± 0.75	911.18 ± 0.74	901.29 ± 0.73
